{"source": "patent US20180319786A1", "about": "“INHIBITOR OF THE P2X7 RECEPTOR” (H. Lundbeck A/S, priority 2015, published 2018)", "key": {"human P2X7 receptors": {"biological_target": "T1, human P2X7 receptors (Homo sapiens, UniProt Q99572)", "T1 construct": "expressed in transfected cells; host or cells: HEK293", "T1 sequence (Q99572 1-595)": "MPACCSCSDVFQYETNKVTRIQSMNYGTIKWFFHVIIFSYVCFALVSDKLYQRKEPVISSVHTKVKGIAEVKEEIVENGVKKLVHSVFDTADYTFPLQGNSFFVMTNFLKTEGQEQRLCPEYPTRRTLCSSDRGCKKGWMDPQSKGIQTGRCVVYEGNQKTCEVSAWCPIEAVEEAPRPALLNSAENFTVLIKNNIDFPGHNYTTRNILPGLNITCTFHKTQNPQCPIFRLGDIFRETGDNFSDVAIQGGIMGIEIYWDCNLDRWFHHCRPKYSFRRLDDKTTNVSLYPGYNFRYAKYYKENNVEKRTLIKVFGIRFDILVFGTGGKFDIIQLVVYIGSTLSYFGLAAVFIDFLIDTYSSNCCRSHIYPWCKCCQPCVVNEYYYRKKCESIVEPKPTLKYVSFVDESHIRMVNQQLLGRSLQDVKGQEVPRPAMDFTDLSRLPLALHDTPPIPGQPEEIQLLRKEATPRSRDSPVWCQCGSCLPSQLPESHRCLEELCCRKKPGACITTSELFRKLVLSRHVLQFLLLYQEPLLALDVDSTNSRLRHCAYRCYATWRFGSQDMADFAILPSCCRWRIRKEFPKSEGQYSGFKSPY", "test": "P2X7 FLIPR assay", "format": "cell-based", "details": "Human P2X7 in HEK293 cells, BzATP 8 μM, Ca2+ mobilization", "procedure": "HEK293 cells stably expressing either human, mouse, or rat P2X7 receptors were plated in 384-well poly-D-lysine-coated black FLIPR plates (Greiner One, Cat #781946) using 1.5% FBS media 24 hours before the assay. Sucrose buffer, pH 7.4 was used for the human-P2X7 assay (5 mM of potassium chloride, 9.6 mM NaH2PO4.2H2O, 25 mM Hepes, 0.5 mM CaCl2, 5 mM glucose, 280 mM sucrose and 1.0 mM probenecid (Sigma, St. Louis, Mo.)). Hank's balanced salt solution buffer, pH 7.4 was used for the rat-P2X7 assay (1×HBSS buffer supplemented with 20 mM Hepes plus 2.5 mM probenecid (Sigma, St. Louis, Mo.) and 0.05% bovine serum albumin After removing the media, the plates were loaded with 30 μL of Fluo-4 NW (Molecular Probes, F36206), and were incubated at 37° C. for 30 min in a humidified chamber (5% CO2/95% air), and for 30 min at RT. Mobilization of intracellular Ca^+2 in response to different ligands was measured online using the FLIPR Tetra reader. In the assay, baseline fluorescence was measured for 15 seconds, then 15 μL of 4× compounds (40 μM) was added, fluorescence was monitored for 3 min for agonist activity, 15 μL of 4×BzATP (hP2X7 1×8 μM, rP2X7 1×15 μM) was added and after a 30 min incubation at room temperature the fluorescence was read for 3 min for IC50 determination."}, "CFA inflamed rats": {"system": "CFA inflamed rats", "test": "CFA-induced inflammatory hyperalgesia (paw pressure threshold)", "format": "in vivo, rat", "procedure": "(§1) Male Sprague Dawley rats (Charles River, Germany) weighing 250-300 g on the day of gabapentin administration were used (n=8-10 per group). The animals were housed in Macrolon III cages (20×14×18 cm or 20×40×18 cm; in groups of 3-5 per cage according to weight) containing wood-chip bedding material (3×1×4 mm) in an air-conditioned building with controlled environmental parameters (relative humidity 55±15%, temperature 20±2° C., and light from 06.00 to 19.00 h). Food and water were available ad libitum. The rats were allowed to habituate to the housing facilities for at least one week prior to being assigned to behavioral experiments whereupon they were randomly distributed across treatment groups. All experiments were performed according to the Ethical Guidelines of the International Association for the Study of Pain and the Danish Committee for Experiments on Animals.\nIndividual rats received a subcutaneous injection of CFA (50% in saline, 100 μl total volume, Sigma Aldrich) into the plantar surface of the hindpaw. All rats were then immediately returned to their homecage. The day prior to this (pre-CFA baseline response), and then again 24 h post CFA injection (post-CFA baseline response), hindpaw paw pressure thresholds were measured to obtain an index of evoked mechanical hyperalgesia [Ref: Munro, G., et al., Neuropharmacology, 2011. 61(1-2): p. 121-132.1. To do this, the investigator gently restrained the rat prior to the application of progressively increasing mechanical pressure to the mid hindpaw region using an electronic version of the Randall-Selitto device (HTC, U.S.A.) The point at which the rat attempted to make a reflex hindpaw withdrawal which in some instances was followed by vocalization was recorded as the paw pressure threshold (g). […] Thereafter, CFA inflamed rats received oral administration of (S)-N-(2-(4-chlorophenyl)-2-morpholinoethyl)-2-(pyrimidin-2-yl)-4-(trifluoromethyl)thiazole-5-carboxamide or vehicle with the investigator blinded to treatment and the paw pressure threshold measured again 60 minutes later."}, "SNI rats": {"system": "SNI rats", "test": "SNI model of neuropathic pain (von Frey mechanical allodynia)", "format": "in vivo, rat", "details": "for reversal of mechanical hypersensitivity: SNI rats 3-4 weeks post injury", "procedure": "as §1\nA spared nerve injury (SNI) was performed in rats (body weight 180-220 g at the time of surgery) as described previously [Decosterd, I. and C. J. Woolf, Pain, 2000. 87(2): p. 149-581. Anaesthesia was induced and maintained by 2% isoflurane (Baxter A/S, Alleroed, Denmark), combined with oxygen (30%) and nitrous oxide (68%). Next, the skin of the lateral left thigh was incised and the cranial and caudal parts of the biceps femoris muscle were separated and held apart by a retractor to expose the sciatic nerve and its three terminal branches: the sural, common peroneal and tibial nerves. The tibial and common peroneal nerves were tightly ligated with 4/0 silk and 2-3 mm of the nerve distal to the ligation was removed. Any stretching or contact with the intact sural nerve was avoided. […] The presence of mechanical allodynia was assessed using a series of calibrated von Frey hairs (lower limit=0.06 and upper limit=13.5 g, Stoelting Co, Wood Dale Ill.), which were applied to the lateral aspect of the plantar surface of the hindpaw with increasing force until an individual filament used just started to bend. […]"}, "CCI animals": {"system": "CCI animals", "test": "Chronic constrictive injury (CCI) model of neuropathic pain (von Frey PWT)", "format": "in vivo, rat", "details": "100 mg/kg, PWT 120 minutes following administration, p<0.05", "procedure": "Male Sprague Dawley rats (Harlan) were used in the study. Upon receipt, rats were group housed with 2-3 per cage in standard cages. Rats were allowed to acclimate for up to 1 week prior to surgery. All rats were examined and weighed prior to initiation of the study to assure adequate health and suitability. During the course of the study, 12/12 light/dark cycles were maintained. The room temperature was maintained between 20° C. and 23° C. with a relative humidity maintained around 50%. Chow and water were provided ad libitum for the duration of the study. All testing was performed during the animals' light cycle phase. Rats were single housed after surgery.\nThis surgery was performed according to Bennett and Xie (1988). […] Each rat was monitored until awake and moving freely around the recovery chamber. […]\nPaw withdrawal from a mechanical stimulus was measured by applying von Frey filaments of ascending bending force to the plantar surface of the hind paws (ipsilateral and contralateral). Baseline and post-treatment withdrawal threshold values for non-noxious mechanical sensitivity were evaluated using von Frey filaments (Semmes-Weinstein filaments, Stoelting, Wood Dale, Ill., USA) of varying stiffness (0.4, 0.7, 1.2, 2.0, 3.6, 5.5, 8.5, 10, 15, 26 g). […]\nData were analyzed by Analysis of variance (ANOVA), followed by post-hoc comparisons when appropriate. […]"}}, "data": [{"smiles": "O=C(NCC(c1ccc(Cl)cc1)N1CCOCC1)c1sc(-c2ncccn2)nc1C(F)(F)F", "note": "(racemic) [Compound (III), (±)-N-(2-(4-chlorophenyl)-2-morpholinoethyl)-2-(pyrimidin-2-yl)-4-(trifluoromethyl)thiazole-5-carboxamide]", "values": [{"measurement": "IC50", "setting": "human P2X7 receptors", "result": "32 ± 13", "unit": "nM"}]}, {"smiles": "O=C(NC[C@H](c1ccc(Cl)cc1)N1CCOCC1)c1sc(-c2ncccn2)nc1C(F)(F)F", "note": "[Compound (I), (S)-N-(2-(4-chlorophenyl)-2-morpholinoethyl)-2-(pyrimidin-2-yl)-4-(trifluoromethyl)thiazole-5-carboxamide]", "values": [{"measurement": "IC50", "setting": "human P2X7 receptors", "result": "12 ± 10", "unit": "nM"}, {"measurement": "reversal of mechanical hyperalgesia", "setting": "CFA inflamed rats; 30 mg/kg dose, oral, paw pressure threshold 60 minutes later, 24 h post CFA", "result": 62, "unit": "% reversal"}, {"measurement": "effect on mechanical hyperalgesia", "setting": "CFA inflamed rats; oral, F(4.49)=30.692, P<0.001", "result": "significantly reversed"}, {"measurement": "reversal of mechanical hypersensitivity", "setting": "SNI rats; 30 and 100 mg/kg tested, dose of this value not stated", "result": 108, "unit": "% reversal"}, {"measurement": "effect on mechanical hypersensitivity", "setting": "SNI rats; 30 and 100 mg/kg, F(3.47)=12.522, P<0.001", "result": "dose dependently reversed"}, {"measurement": "PWT compared to vehicle treatment", "setting": "CCI animals", "result": "significantly increased"}]}, {"smiles": "O=C(NC[C@@H](c1ccc(Cl)cc1)N1CCOCC1)c1sc(-c2ncccn2)nc1C(F)(F)F", "note": "[Compound (II), (R)-N-(2-(4-chlorophenyl)-2-morpholinoethyl)-2-(pyrimidin-2-yl)-4-(trifluoromethyl)thiazole-5-carboxamide]", "values": [{"measurement": "IC50", "setting": "human P2X7 receptors", "result": "89 ± 13", "unit": "nM"}]}, {"smiles": "O=C(O)Cc1ccccc1Nc1c(Cl)cccc1Cl", "note": "[diclofenac, reference compound]", "values": [{"measurement": "reversal of mechanical hyperalgesia", "setting": "CFA inflamed rats; NSAID comparator, dose not given", "result": 84, "unit": "% reversal"}]}, {"smiles": "NCC1(CC(=O)O)CCCCC1", "note": "[gabapentin, reference compound]", "values": [{"measurement": "reversal of mechanical hypersensitivity", "setting": "SNI rats; 100 mg/kg dose", "result": 132, "unit": "% reversal"}, {"measurement": "PWT compared to vehicle treatment", "setting": "CCI animals", "result": "significantly increased"}]}]}
